Experimental data taken from patent US9101547B2, “Enteric-coated capsule containing cationic nanoparticles for oral insulin delivery” (NANO AND ADVANCED MATERIALS INSTITUTE LIMITED, priority 2011, dated 2015).

Test system: diabetic rats
Assay: In vivo study after administration in diabetic rats (blood glucose level-time profiles)
Protocol: The effect of insulin-loaded nanoparticles on the blood glucose levels is shown by comparing with that of the S.C. injection of insulin. […] SC injection of the insulin solution produces a sharp decrease in blood glucose level (90% in 2 h), which gradually returns to the basal level at 10 h, whereas the hypoglycemia effect is less significant after oral administration of the enteric-coated capsules which produces a slower but prolonged reduction in blood glucose level. The blood glucose level of the diabetic rats increases slightly during the first 4 hours of the experiment, possibly due to physical stress during handling and blood sampling. The hypoglycemic effect and the pharmacological availability (PA) of the enteric-coated capsule, determined by the dose-corrected AAC0-24h over 24 h relative to SC free-form insulin, as noted in Table 4, are 32.9% and 9.2%, respectively.

insulin [Insulin free-form (SC)]
hypoglycemic effect (FIG. 4): significant hypoglycemic effect
time at which blood glucose returns to the basal level (SC injection): 10 h
decrease in blood glucose level (SC injection, in 2 h): 90%
PA (pharmacological availability) (dose-corrected AAC0-24h relative to SC free-form insulin): 100%
Cmin = minimum relative basal glucose concentration in the blood (mean ± SD, n = 3 per group): 11.72 ± 1.1%
AAC0-24 h (n = 3 per group): 1008 % h
Tmax = time at minimum relative basal glucose concentration in the blood (n = 3 per group): 2 h
Hypoglycemic Effect (over 24 h, n = 3 per group): 35.2%
